Assay results taken from patent US7534809B2, “Phospho-indoles as HIV inhibitors” (priority 2004, dated 2009).
pEC50: −log10 of the molar value. Read-outs that look alike come from different tables or passages of the source.

Experiments:
HIV mutant strain Y181C = test: Cell-based assay using BH-10 cells, Y181C mutant
Description: (§1) In a typical embodiment, the NNRTIs display an EC50 in a mutant HIV strain of less than approximately 5, 2.5, 1 or 0.1 μM concentration. The degree of cross-resistance against a drug resistant strain of HIV is measured by assessing the EC50 of the desired oxo-pyrimidine compound in the target mutated, i.e., drug resistant, virus.
(§2) The degree of cross-resistance against a drug resistant strain of HIV can easily be measured by assessing the EC50 of the desired indole in the target mutated i.e., drug resistant, virus.

[1] = tested on: HIV mutant strain K103N/Y181C; test: Cell-based assay using BH-10 cells, K103N/Y181C mutant
Description: as §1, §2

HIV BH-10 WT = test: Cell-based assay using BH-10 cells, wild type
[2] = Human immunodeficiency virus 1, read-out: EC50 Y181C, BH-10 cells, Y181C mutant
[3] = Human immunodeficiency virus 1, read-out: EC50 K103N/Y181C, BH-10 cells, K103N/Y181C mutant
[4] = Human immunodeficiency virus 1, read-out: EC50 WT///B, BH-10 cells, wild type
[5] = BH-10 cells, Y181C mutant, read-out: EC50 Y181C
[6] = BH-10 cells, K103N/Y181C mutant, read-out: EC50 K103N/Y181C
[7] = BH-10 cells, wild type, read-out: EC50 WT///B

| Compound | pEC50 (HIV mutant strain Y181C; [2]) | pEC50 [1, 3] | pEC50 (HIV BH-10 WT; [4]) | pEC50 (HIV mutant strain Y181C; [5]) | pEC50 [1, 6] | pEC50 (HIV BH-10 WT; [7]) |
| --- | --- | --- | --- | --- | --- | --- |
| COP(=O)(c1cc(F)cc(Br)c1)c1c(C(N)=O)[nH]c2ccc(Cl)cc12 (stereo not drawn) [Compound 7j] | 8.52 | 8.39 | 8.74 | – | – | – |
| COc1cccc(P(=O)(OC)c2c(C(N)=O)[nH]c3ccc(Cl)cc23)c1 (stereo not drawn) [Compound 7l] | 7.41 | 7.66 | 9.22 | – | – | – |
| COc1ccccc1P(=O)(OC)c1c(C(N)=O)[nH]c2ccc(Cl)cc12 (stereo not drawn) [Compound 7n] | – | – | – | 7.18 | 8.82 | 8.77 |
| COP(=O)(c1cc(F)cc(C(F)(F)F)c1)c1c(C(N)=O)[nH]c2ccc(Cl)cc12 (stereo not drawn) [Compound 7q] | 7.78 | 8.54 | 8.96 | – | – | – |
| COP(=O)(c1cc(C(F)(F)F)cc(C(F)(F)F)c1)c1c(C(N)=O)[nH]c2ccc(Cl)cc12 (stereo not drawn) [Compound 7s] | 7.17 | 7.32 | 7.89 | – | – | – |
| COP(=O)(c1cccc2ccccc12)c1c(C(N)=O)[nH]c2ccc(Cl)cc12 (stereo not drawn) [Compound 7t] | 8.24 | 8.59 | 9.22 | – | – | – |
| COP(=O)(c1cc(F)cc(Cl)c1)c1c(C(N)=O)[nH]c2ccc(Cl)cc12 (stereo not drawn) [Compound 7v] | 7.83 | 8.64 | 9.10 | – | – | – |
| CCc1cc(C)cc(P(=O)(OC)c2c(C(N)=O)[nH]c3ccc(Cl)cc23)c1 (stereo not drawn) [Compound 7w] | 8.26 | 8.92 | 9.40 | – | – | – |
| CCCc1cccc(P(=O)(OC)c2c(C(N)=O)[nH]c3ccc(Cl)cc23)c1 (stereo not drawn) [Compound 7x] | 7.86 | 8.06 | 8.52 | – | – | – |
| COP(=O)(c1cc(C)cc(C)c1)c1c(C(N)=O)[nH]c2ccc(Cl)c(F)c12 (stereo not drawn) [Compound 7z] | 8.07 | 8.66 | 8.68 | – | – | – |
| COP(=O)(c1cccc(C)c1)c1c(C(=O)NCc2ccncc2)[nH]c2ccc(Cl)cc12 (stereo not drawn) [Compound 18a] | 8.00 | 8.51 | 9.00 | – | – | – |
| COP(=O)(c1cc(C)cc(C)c1)c1c(C(=O)NCc2cncn2C)[nH]c2ccc(Cl)cc12 (stereo not drawn) [Compound 18aaa] | 8.19 | 8.48 | 8.49 | – | – | – |
| COP(=O)(c1ccccc1)c1c(C(=O)NCc2ccccc2F)[nH]c2ccc(Cl)cc12 (stereo not drawn) [Compound 18aab] | 7.47 | 7.99 | 8.42 | – | – | – |
| COP(=O)(c1ccccc1)c1c(C(=O)NCN2CCOCC2)[nH]c2ccc(Cl)cc12 (stereo not drawn) [Compound 18aac] | 8.00 | 7.85 | 9.30 | – | – | – |
| COP(=O)(c1cc(F)cc(F)c1)c1c(C(=O)NCc2ccccc2F)[nH]c2ccc(Cl)cc12 (stereo not drawn) [Compound 18aad] | 7.42 | 7.90 | 7.96 | – | – | – |
| COP(=O)(c1cc(F)cc(F)c1)c1c(C(=O)NCc2cncn2C)[nH]c2ccc(Cl)cc12 (stereo not drawn) [Compound 18aae] | 7.98 | 8.57 | 8.59 | – | – | – |
| COP(=O)(c1cc(C)cc(C#N)c1)c1c(C(=O)NCc2ccncc2)[nH]c2ccc(Cl)cc12 (stereo not drawn) [Compound 18aaf] | 8.41 | 8.96 | 8.74 | – | – | – |
| COP(=O)(c1cc(C)cc(C#N)c1)c1c(C(=O)NCc2cncn2C)[nH]c2ccc(Cl)cc12 (stereo not drawn) [Compound 18aag] | 7.73 | 8.54 | 8.51 | – | – | – |
| COP(=O)(c1cc(C)cc(C)c1)c1c(C(=O)NCc2c(F)cccc2F)[nH]c2ccc(Cl)cc12 (stereo not drawn) [Compound 18aah] | – | – | – | 7.64 | 7.77 | 8.15 |
| COP(=O)(c1cc(C)cc(C)c1)c1c(C(=O)NCc2cc(F)ccc2F)[nH]c2ccc(Cl)cc12 (stereo not drawn) [Compound 18aai] | – | – | – | 7.81 | 7.74 | 8.44 |
| COP(=O)(c1cc(C)cc(C)c1)c1c(C(=O)NCc2ccccc2C(F)(F)F)[nH]c2ccc(Cl)cc12 (stereo not drawn) [Compound 18aal] | 7.71 | 7.66 | 7.52 | – | – | – |
| COP(=O)(c1cc(C)cc(C)c1)c1c(C(=O)NCc2ccccn2)[nH]c2ccc(Cl)cc12 (stereo not drawn) [Compound 18aam] | 8.17 | 7.65 | 7.76 | – | – | – |
| COP(=O)(c1cc(C)cc(C)c1)c1c(C(=O)NCc2cccnc2)[nH]c2ccc(Cl)c(F)c12 (stereo not drawn) [Compound 18aan] | 6.52 | 6.22 | 7.82 | – | – | – |
| COP(=O)(c1ccccc1)c1c(C(=O)N[C@H](C(N)=O)c2ccccc2)[nH]c2ccc(Cl)cc12 (stereo partly drawn) [Compound 18aao] | 6.54 | 6.93 | 7.42 | – | – | – |
| C=Cc1cccc(P(=O)(OC)c2c(C(N)=O)[nH]c3ccc(Cl)cc23)c1 (stereo not drawn) [Compound 18aaq] | 7.74 | 7.56 | 8.14 | – | – | – |

| Compound | pEC50 (HIV mutant strain Y181C; [2]) | pEC50 [1, 3] | pEC50 (HIV BH-10 WT; [4]) | pEC50 (HIV mutant strain Y181C; [5]) | pEC50 [1, 6] | pEC50 (HIV BH-10 WT; [7]) |
| --- | --- | --- | --- | --- | --- | --- |
| CCc1cccc(P(=O)(OC)c2c(C(=O)NCc3ccncc3)[nH]c3ccc(Cl)cc23)c1 (stereo not drawn) [Compound 18ap] | 8.43 | 8.24 | 8.24 | – | – | – |
| COP(=O)(c1cccc(C(C)C)c1)c1c(C(=O)NCc2ccncc2)[nH]c2ccc(Cl)cc12 (stereo not drawn) [Compound 18aq] | 7.50 | 7.73 | 7.92 | – | – | – |
| COP(=O)(c1ccccc1)c1c(C(=O)NCc2cncn2C)[nH]c2ccc(Cl)cc12 (stereo not drawn) [Compound 18as] | 8.00 | 9.22 | 9.52 | – | – | – |
| COP(=O)(c1ccccc1)c1c(C(=O)NCc2ccco2)[nH]c2ccc(Cl)cc12 (stereo not drawn) [Compound 18at] | 8.82 | 9.30 | 8.74 | – | – | – |
| COc1cccc(P(=O)(OC)c2c(C(=O)NCc3ccco3)[nH]c3ccc(Cl)cc23)c1 (stereo not drawn) [Compound 18au] | 8.48 | 8.22 | 9.10 | – | – | – |
| COP(=O)(c1cc(C)cc(C)c1)c1c(C(=O)NCc2ccncc2)[nH]c2ccc(Cl)cc12 (stereo not drawn) [Compound 18ax] | 8.14 | 8.64 | 8.52 | – | – | – |
| COP(=O)(c1cc(C)cc(C)c1)c1c(C(=O)NCN2CCOCC2)[nH]c2ccc(Cl)cc12 (stereo not drawn) [Compound 18ay] | 7.70 | 8.03 | 8.46 | – | – | – |
| COP(=O)(c1cc(C)cc(C)c1)c1c(C(=O)NCc2ccccc2F)[nH]c2ccc(Cl)cc12 (stereo not drawn) [Compound 18az] | 7.78 | 8.07 | 8.52 | – | – | – |
| COP(=O)(c1cccc(C)c1)c1c(C(=O)NCc2ccco2)[nH]c2ccc(Cl)cc12 (stereo not drawn) [Compound 18b] | 8.00 | 8.40 | 8.44 | – | – | – |
| COP(=O)(c1cccc(CF)c1)c1c(C(=O)NCc2ccncc2)[nH]c2ccc(Cl)cc12 (stereo not drawn) [Compound 18c] | 8.54 | 8.33 | 8.70 | – | – | – |
| COP(=O)(c1cc(C)cc(F)c1)c1c(C(=O)NCc2ccncc2)[nH]c2ccc(Cl)cc12 (stereo not drawn) [Compound 18d] | 8.03 | 8.43 | 8.64 | – | – | – |
| COP(=O)(c1cc(F)cc(F)c1)c1c(C(=O)NCc2ccncc2)[nH]c2ccc(Cl)cc12 (stereo not drawn) [Compound 18e] | 7.83 | 7.92 | 8.46 | – | – | – |
| COP(=O)(c1cc(C)cc(C)c1)c1c(C(=O)NCc2cccnc2)[nH]c2ccc(Cl)cc12 (stereo not drawn) [Compound 18f] | 8.23 | 8.47 | 8.64 | – | – | – |
| COP(=O)(c1cc(C)cc(C)c1)c1c(C(=O)NCCc2ccncc2)[nH]c2ccc(Cl)cc12 (stereo not drawn) [Compound 18g] | 7.51 | 8.01 | 7.94 | – | – | – |
| COP(=O)(c1cc(C)cc(C)c1)c1c(C(=O)NCc2ccncc2F)[nH]c2ccc(Cl)cc12 (stereo not drawn) [Compound 18h] | 7.84 | 8.37 | 8.77 | – | – | – |
| COP(=O)(c1cc(C)cc(C)c1)c1c(C(=O)NCc2cnccn2)[nH]c2ccc(Cl)cc12 (stereo not drawn) [Compound 18i] | 7.77 | 8.74 | 8.52 | – | – | – |
| COP(=O)(c1cc(C)cc(C)c1)c1c(C(=O)NCc2cncnc2)[nH]c2ccc(Cl)cc12 (stereo not drawn) [Compound 18j] | – | – | – | 8.29 | 8.72 | 8.44 |
| COP(=O)(c1cc(C)cc(C)c1)c1c(C(=O)NCc2ccc(Br)cc2)[nH]c2ccc(Cl)cc12 (stereo not drawn) [Compound 18k] | 6.99 | 7.30 | 7.41 | – | – | – |
| COP(=O)(c1cc(C)cc(C)c1)c1c(C(=O)NCc2ccncn2)[nH]c2ccc(Cl)cc12 (stereo not drawn) [Compound 18l] | 8.60 | 8.66 | 8.77 | – | – | – |
| COP(=O)(c1cc(C)cc(C)c1)c1c(C(=O)NCc2ccccc2N)[nH]c2ccc(Cl)cc12 (stereo not drawn) [Compound 18n] | 7.06 | 7.64 | 7.71 | – | – | – |
| COP(=O)(c1cc(F)cc(F)c1)c1c(C(=O)NCc2ccc(C#N)cc2)[nH]c2ccc(Cl)cc12 (stereo not drawn) [Compound 18q] | 7.45 | 7.27 | 8.52 | – | – | – |
| COP(=O)(c1cc(C)cc(C)c1)c1c(C(=O)NCc2ccncc2)[nH]c2ccc(Cl)c(F)c12 (stereo not drawn) [Compound 18r] | 7.78 | 8.44 | 8.42 | – | – | – |
| COP(=O)(c1cc(F)cc(F)c1)c1c(C(=O)NCc2cc[n+]([O-])cc2)[nH]c2ccc(Cl)cc12 (stereo not drawn) [Compound 22a] | 7.28 | 7.95 | 8.51 | – | – | – |
| COP(=O)(c1cc(C)cc(C#N)c1)c1c(C(=O)NCc2cc[n+]([O-])cc2)[nH]c2ccc(Cl)cc12 (stereo not drawn) [Compound 22ak] | 8.17 | 7.96 | 8.15 | – | – | – |
| COP(=O)(c1cc(C)cc(C)c1)c1c(C(=O)NCc2ccc[n+]([O-])c2)[nH]c2ccc(Cl)cc12 (stereo not drawn) [Compound 22b] | 7.73 | 8.49 | 8.46 | – | – | – |
